Consider nine molecules from patent US6054441A, “Oxypurine nucleosides and their congeners, and acyl derivatives thereof, for improvement of hematopoiesis” (priority 1995, dated 2000).

Assay [1] has as its system hematopoietic recovery after cyclophosphamide. Briefly: Hematopoietic recovery after cyclophosphamide (Example 51). It is filed as in vivo, Balb/C mice. Conditions: day 5; 2 μmoles/mouse. The procedure: Cyclophosphamide (CP) (275 mg/kg, i.p.) was administered to 88 Balb/C female mice weighing approximately 20 grams each. Twenty-four hours later and each day thereafter mice were given a 0.4 ml i.p. injection of either Tween-80 (0.2%) (controls), 3'-O-palmitoyldeoxyguanosine (2 μmoles/mouse), butyryldeoxyguanosine (2 μmoles/mouse), palmitoyl-N-isobutyryldeoxyguanosine (2 μmoles/mouse), lauryldeoxyguanosine (2 μmoles/mouse), octanoyldeoxyguanosine (2 μmoles/mouse), and palmitoyldeoxyguanosine (2 μmoles/mouse). On days 5 and 7 following CP administration 6 or 7 animals in each of the 7 groups were bled and then sacrificed by cervical dislocation. Spleens were removed and weighed, and complete blood cell counts performed.

Another assay relates to FDCPmix cells. The assay is described as follows: Proliferation of FDCPmix cells, MTT assay (Example 69). The settings on record: for inhibition of proliferation: 10 micrograms/ml down; for activity at 0.01 µg/mL / activity at 0.039 µg/mL / activity at 0.156 µg/mL / activity at 0.625 µg/mL / activity at 2.5 µg/mL / activity at 10 µg/mL: 48 h, read-out: Cell proliferation. The class given is cell-based. The procedure:
The FDCPmix cell line was used as a suitable in vitro model for predicting the effects of hematopoietic factors on pluripotential stem cells. These cells can be maintained in an-undifferentiated state in the presence of IL-3 or undergo multi-lineage development in the presence of specific hematopoietic growth factors.
This level of proliferation (100%) served as the control value. Inhibition of proliferation by test compounds was represented as a percent of control.
FDCPmix cells were plated at a density of 5×10^4 cells per well in 96-well plates (5×10^5 /ml) using IMDM medium plus 10% fetal bovine serum. […] Test compounds were added at a decreasing concentrations ranging from 10 micrograms/ml down to 1 nanogram/ml. The test compounds included: 3',5'-O-N^2 -tripalmitoyl-2'-deoxyguanosine, 3',5'-di-O-palmitoyl-2'-deoxyguanosine, 3',5'-O-N^2 -trioctanoyl-2'-deoxyguanosine, 3',5'-di-O-octanoyl-2'-deoxyguanosine, and 3',5'-O-N^2 -trioleyl-2'-deoxyguanosine.
On the technique in general: Tetrazolium assays rely on reduction of a dye to a coloured formazan, in cell work by metabolically active cells.

In assay [2] the test system is blood cell counts after cyclophosphamide. Briefly: Hematopoietic recovery after cyclophosphamide (Example 63). The class given is in vivo, Balb-C mice. Conditions: for Neutrophils / Platelets / WBC / Spleen: 7 days after CP; for Spleen: 25 mg/kg TriPdG or molar equivalent. The procedure: Fifty-eight female Balb-C mice weighing approximately 20 grams each received a single injection of cyclophosphamide (250 mg/kg, i.p.), and were then distributed into a vehicle control group (0.2% Tween-80+7.5% DMSO in saline; n=12) or one of five treatment groups:
Vehicle or treatment agents were administered to mice once daily for five days at a volume of 0.4 ml by i.p. injection. TriPdG was given at a dose of 25 mg/kg/treatment. The other four agents were given in doses that are the molar equivalent of 25 mg/kg/treatment of TriPdG. On days 5 and 7 following CP administration half of the animals from each of the six groups were bled and then sacrificed by cervical dislocation. Five untreated mice were also bled and sacrificed to provide data on normal (basal) values. Spleens were removed and weighed, and complete blood cell counts performed.

The test system of assay [3] is hematopoiesis in normal mice. Briefly: Hematopoiesis in normal mice (Example 56). It is filed as in vivo, Balb/C mice. Conditions: femoral bone marrow; day 5; 2.6 μmoles/mouse, 4 days. The procedure: Normal Balb/C female mice weighing approximately 20 grams each were given a daily 0.4 ml i.p. injection of either physiological saline (controls), palmitoylguanosine (2.6 μmoles/mouse), palmitoyldeoxyguanosine (2.6 μmoles/mouse), monopalmitoylguanosine 2',3'-acyclic dialcohol (2.6 μmoles/mouse), and palmitoyl-8-bromoguanosine (2.6 μmoles/mouse) for 4 days. On the fifth day all 3 animals in each of the 5 groups were bled and then sacrificed by cervical dislocation. Spleens were removed and weighed, and complete blood cell counts performed. Femoral bone marrow from each mouse was collected and a differential cell count performed on marrow smears.

For assay [4], the system named is hematopoietic recovery after cyclophosphamide. The assay is described as follows: Hematopoietic recovery after cyclophosphamide (Example 47). The class given is in vivo, Balb/C mice. The procedure: Cyclophosphamide (CP) (275 mg/kg, i.p.) was administered to 48 Balb/C female mice weighing approximately 20 grams each. Twenty-four hours later and each day thereafter for a total of 6 days, mice were given a 0.4 ml i.p. injection of either physiological saline (controls), benzoylguanosine (2.5 μmoles/mouse/day in 0.2% Tween 80), or palmitoylguanosine (2.5 μmoles/mouse/day in 0.2% Tween 80). On days 7 and 10 following CP administration 8 animals from each of the 3 groups were bled and then were sacrificed by cervical dislocation. Spleens were removed and weighed, and complete blood cell counts performed.

Assay [5] shares this test system. Briefly: Hematopoietic recovery after cyclophosphamide (Example 48). The class given is in vivo, Balb/C mice. The settings on record: day 7; vs controls. The procedure: Cyclophosphamide (CP) (275 mg/kg, i.p.) was administered to 36 Balb/C female mice weighing approximately 20 grams each. Twenty four hours later and each day thereafter for a total of 4 or 6 days, mice were given a 0.4 ml i.p. injection of either physiological saline (controls), palmitoyldeoxyinosine (2.5 μmoles/mouse), or palmitoylxanthosine (2.5 μmoles/mouse). On days 5 and 7 following CP administration 6 of the 12 animals in each of the 3 groups were bled and then sacrificed by cervical dislocation. Spleens were removed and weighed, and complete blood cell counts performed.

Take `CCCCCCCCCCCCCCCC(=O)O[C@H]1C[C@H](n2cnc3c(=O)[nH]c(N)nc32)O[C@@H]1CO` [3'-O-palmitoyldeoxyguanosine, 3'-O-Palmitoyl-2'-deoxyguanosine]: in assay [1], the spleen weight entry is “significantly elevated” and the total neutrophil counts result was “significantly elevated”.

In the case of `CCCCCCCC(=O)OC[C@H]1O[C@@H](n2cnc3c(=O)[nH]c(N)nc32)C[C@@H]1OC(=O)CCCCCCC` [DiOctdG, 3',5'-di-O-octanoyl-2'-deoxyguanosine], in the assay on FDCPmix cells, the inhibition of proliferation entry was “little or no inhibitory effects”, the activity at 0.01 µg/mL amounted to 84 ± 2%, the activity at 0.039 µg/mL turned out to be 86 ± 1% and the activity at 0.156 µg/mL stood at 84 ± 6%. Besides, in the assay with FDCPmix cells, the activity at 0.625 µg/mL was determined as 93 ± 1%, the activity at 2.5 µg/mL was 78 ± 2% and the activity at 10 µg/mL is 100 ± 0.3%.

Regarding `CCCCCCCCCCCCCCCC(=O)OC[C@H]1O[C@@H](n2cnc3c(=O)[nH]c(NC(=O)C(C)C)nc32)C[C@@H]1O` [NibuPdG, N^2-isobutyryl-5'-O-palmitoyl-2'-deoxyguanosine], in assay [1], the spleen weight result is reported as “significantly elevated” and the total neutrophil counts result is reported as “significantly elevated”. Besides, in assay [2], the Neutrophils is listed as 2.2 ± .5 K/μl, the Platelets amounted to 649 ± 23 K/μl, the WBC is 4.4 ± .5 K/μl and the Spleen is listed as 69 ± 6 mg.

Take `CCCCCCCC(=O)Nc1nc2c(ncn2[C@H]2C[C@H](OC(=O)CCCCCCC)[C@@H](COC(=O)CCCCCCC)O2)c(=O)[nH]1` [TriOctdG, 3',5'-O-N^2-trioctanoyl-2'-deoxyguanosine]: in the assay on FDCPmix cells, the inhibition of proliferation result is listed as “little or no inhibitory effects”, the activity at 0.01 µg/mL was found to be 87 ± 4%, the activity at 0.039 µg/mL came to 85 ± 2% and the activity at 0.156 µg/mL was 89 ± 6%. In the assay on FDCPmix cells, the activity at 0.625 µg/mL worked out at 86 ± 2%, the activity at 2.5 µg/mL worked out at 96 ± 0.1% and the activity at 10 µg/mL was 107 ± 1%.

As for `CCCCCCCC/C=C\CCCCCCCC(=O)Nc1nc2c(ncn2[C@H]2C[C@H](OC(=O)CCCCCCC/C=C\CCCCCCCC)[C@@H](COC(=O)CCCCCCC/C=C\CCCCCCCC)O2)c(=O)[nH]1` [TriOdG, 3',5'-O-N^2-trioleyl-2'-deoxyguanosine], in assay [2], the Neutrophils was 2.7 ± .4 K/μl, the Platelets was 741 ± 54 K/μl, the WBC is 5.2 ± .4 K/μl and the Spleen came to 59 ± 5 mg. Also, the lymphocyte counts entry in assay [2] (day 7 after CP, vs control) was “increased both platelet and lymphocyte counts”. Moreover, in the assay on FDCPmix cells, the inhibition of proliferation result was “little or no inhibitory effects”, the activity at 0.01 µg/mL came out at 92 ± 5%, the activity at 0.039 µg/mL came out at 91 ± 5% and the activity at 0.156 µg/mL was 92 ± 5%. In addition, in the assay on FDCPmix cells, the activity at 0.625 µg/mL turned out to be 98 ± 6%, the activity at 2.5 µg/mL was 80 ± 2% and the activity at 10 µg/mL is 110 ± 3%.

Take `CCCCCCCCCCCCCCCCCC(=O)Nc1nc2c(ncn2[C@H]2C[C@H](OC(=O)CCCCCCCCCCCCCCCCC)[C@@H](COC(=O)CCCCCCCCCCCCCCCCC)O2)c(=O)[nH]1` [TriSdG, 3',5'-O-N^2-tristearyl-2'-deoxyguanosine]: in assay [2], the Neutrophils is reported as 5.4 ± .5 K/μl, the Platelets was found to be 498 ± 27 K/μl, the WBC is 7.6 ± .4 K/μl and the Spleen is 85 ± 9 mg.

Take `CCCCCCCCCCCCCCCC(=O)OC[C@H]1O[C@@H](n2c(Br)nc3c(=O)[nH]c(N)nc32)[C@H](O)[C@@H]1O` [palmitoyl-8-bromoguanosine]: the number of myelocytes result in assay [3] was “significantly greater”.

On to Benzoylguanosine, for which, in assay [4] (day 7, 2.5 μmoles/mouse/day), the Neutrophils result is given as “significantly elevated”, the spleen weight entry is listed as “significantly elevated” and the “total white blood cells” value is recorded as “significantly elevated”. The platelet number result in assay [4] (day 10) is listed as “significantly greater”.

As for Palmitoylxanthosine, in assay [5], the Neutrophils result was “significantly increased”, the spleen weight result is given as “significantly increased” and the total leukocytes entry was “significantly increased”.
